Measurements as given in patent publication US8067372B2, “Modulation of angiogenesis by A-beta peptide fragments” (Alzheimer's Institute of America, Inc., priority 2005, dated 2011).
Entries after “also recorded” stand apart in the source; their conditions may differ.

How the values were obtained:
[1] = system: Human Umbilical Vein Endothelial Cells (HUVEC); test: Capillary tube formation assay (HUVEC on Matrigel); type: cell-based; details: for Total length of capillary tubes (percentage of control): ANOVA main effect: 0, 1, 5 and 10 μM doses
Experimental: All in-vitro experiments were performed using primary Human Umbilical Vein Endothelial Cells (HUVEC) at passages 3-4, purchased from American Tissue Type Culture Collection (ATCC, VA). Cells were cultured in F12K Medium (ATCC, VA) supplemented with 10% fetal bovine serum (Invitrogen, CA), 0.1 mg/ml Heparin and 0.03 mg/ml endothelial cell growth supplement (Sigma-Aldrich, MO). At all times, cells were maintained in a sterile cell culture incubator at 37° C. and 5% CO2.
HUVEC (7.5×10^4 cells/ml) in 500 μl of medium were seeded in 24-well plates, on top of a layer of Matrigel basement membrane matrix (Invitrogen, CA) in F12K medium (ATCC, VA) containing 4% serum (Invitrogen, CA), 0.1 mg/ml Heparin and 0.03 mg/ml endothelial cell growth supplement (Sigma-Aldrich, MO). Cells were incubated with peptides (or control conditions) for 24 hours. Control wells received the same volume of vehicle (DMSO) used to dilute the peptides. Network formation experiments were performed in triplicate, and at least 2 randomly chosen fields were photographed for each well using a 4× objective. Capillary length was measured using Image Pro Plus software (Media Cybernetic, Inc., MD).

[2] = system: VEGF-induced angiogenesis; test: Rat corneal micropocket assay; type: in vivo; details: 0.5, 2.5 and 5.0 μg with 200 ng VEGF; 7 days
Experimental: The vascular growth response was measured seven days post implantation. The lengths and widths of vessel outgrowths were measured and the angiogenic index (AI) calculated using the formula L×W=AI. Rats were perfused with colloidal carbon, eyes enucleated and fixed in 10% buffered formalin. Corneas were removed under an Olympus dissecting microscope and mounted on glass slides with Crystal Mount media.

[3] = tested at 1, 5 and 10 μM, 24 hours

Substance	Total length of capillary tubes (percentage of control): ANOVA main effect [1]	anti-angiogenic activity in capillary network formation [1, 3]	other results
DAEFRHDSGYEVAAQALVFFAEDVGSNK (listed as Homo sapiens) [Aβ1-28 Mutant 2]	no main effect		
DAEFRHDSGYEVGGQGLVFFAEDVGSNK (listed as Homo sapiens) [Aβ1-28 Mutant 1]	no main effect		
GSNKGAIIGLM (listed as Homo sapiens) [Aβ25-35]		not active	anti-angiogenic activity in capillary network formation ([1]; 5 μM): slightly active; anti-angiogenic activity in capillary network formation ([1]; 10 μM): not at 10 μM
HHHQKLVFF (listed as Homo sapiens) [Fragment 1]	significant main effect		Total length of capillary tubes (percentage of control): post hoc effect ([1]; 1, 5 and 10 μM, P<0.005): significant effects; inhibition of VEGF-induced angiogenesis in vivo (Angiogenic Index) [2]: appears antiangiogenic in vivo
LMVGGVVIA (listed as Homo sapiens) [Aβ34-42]		pro-angiogenic activity; also recorded: did not display any anti-angiogenic activity; also recorded: promoted angiogenesis in a dose dependent manner; also recorded: not active	
LVFFAEDVGSNK (listed as Homo sapiens) [Aβ17-28]		did not display any anti-angiogenic activity; also recorded: not active	
YEVHHQK (listed as Homo sapiens) [Aβ10-16]		did not display any anti-angiogenic activity; also recorded: inactive	
YEVHHQKLVFFAEDVGSNKGAIIGLM (listed as Homo sapiens) [Aβ10-35]		most active	Total length of capillary tubes (percentage of control): post hoc difference from control ([1]; 5 and 10 μM doses, P<0.005, 24 hours, n≧8): significant differences
heparin [reference compound]			reversal of inhibition of capillary tube formation induced by Aβ1-42 ([1]; heparin 500 μg/ml and 1 mg/ml added with Aβ1-42, P<0.001 vs Aβ alone): effectively reverse; also recorded: effectively reversed inhibition; inhibition of angiogenesis (capillary tube formation) by heparin alone ([1]; heparin alone, 0.5 or 1 mg/ml): slight inhibition
